In patent US20230146795A1, “ENHANCEMENT OF ANTI-TUMOR ACTIVITY OF SHP2 INHIBITOR PYRIMIDINONE IN COMBINATION WITH NOVEL CANCER MEDICINES IN CANCERS” (TAIHO PHARMACEUTICAL CO., LTD., priority 2020, published 2023):
Where “and” joins values, the source holds several entries; their conditions need not be identical. Equal entries are not always repeated. Where two headings read alike, the source gives them in different places.

Assays:
Assay type in all cases: cell-based
NCI-H358 = assay: Anti-proliferation assay (CellTiter-Glo 2.0), combination index, NCI-H358
Protocol: (§1) Cell lines were obtained from ATCC or Health Science Research Resources Bank.
(§2) Each cell lines were collected by ordinary method, then suspended in indicated medium containing 10% fetal bovine serum in table 3. The number of cells seeded per well was set to 500 cells/20 μL. […] The concentration of each anti-cancer reagents set to 8 concentrations including 0 nM. After adding the medicine to the cells, the cells were further incubated at 37° C. for 3 days under 5% CO2. Cell survival rates were calculated by adding 20 μL of CellTiter-Glo(registered trademark) 2. 0 (Promega) solution to each well, incubating the cells at room temperature for 10 minutes, and then measuring the chemiluminescence intensity of each well using a plate reader (ARVO).
(§3) A combination index (CI) value at each combined concentration of the medicines was determined.

RT4 = assay: Anti-proliferation assay (CellTiter-Glo 2.0), combination index, RT4; conditions: for Description: combination effect
Protocol: as §1, §2, §3

MKN45 = assay: Anti-proliferation assay (CellTiter-Glo 2.0), combination index, MKN45; conditions: for Description: combination effect
Protocol: as §1, §2, §3

[1] = Compound 1 13.7 + combination drug 111 nmol/L (1:8.1)
[2] = Compound 1 41.2 + combination drug 333 nmol/L (1:8.1)
[3] = Compound 1 123 + combination drug 1000 nmol/L (1:8.1)
[4] = Compound 1:combination drug molar ratio 1:8.1
[5] = Compound 1 123 nmol/L + FTD 3330 nmol/L, molar ratio 1:27
[6] = Compound 1 370 nmol/L + FTD 10000 nmol/L, molar ratio 1:27
[7] = Compound 1 370 nmol/L + FTD 123 nmol/L, molar ratio 1:0.3
[8] = Compound 1 1110 nmol/L + FTD 370 nmol/L, molar ratio 1:0.3
[9] = Compound 1 3330 nmol/L + FTD 1110 nmol/L, molar ratio 1:0.3
[10] = Compound 1 4.57 + combination drug 37.0 nmol/L (1:8.1)
[11] = Compound 1 123 + combination drug 556 nmol/L (1:4.5)
[12] = Compound 1 370 + combination drug 1670 nmol/L (1:4.5)
[13] = Compound 1 1110 + combination drug 5000 nmol/L (1:4.5)
[14] = Compound 1 12.3 nmol/L + Gemcitabine 1.23 nmol/L, molar ratio 1:0.1
[15] = Compound 1 37.0 nmol/L + Gemcitabine 3.70 nmol/L, molar ratio 1:0.1
[16] = Compound 1 41.2 nmol/L + 5-FU 3330 nmol/L, molar ratio 1:81
[17] = Compound 1 123 nmol/L + 5-FU 10000 nmol/L, molar ratio 1:81
[18] = Compound 1 123 + combination drug 3330 nmol/L (1:27)
[19] = Compound 1 370 + combination drug 10000 nmol/L (1:27)
[20] = Compound 1 37.0 + combination drug 4.12 nmol/L (1:0.1)
[21] = Compound 1 111 + combination drug 12.3 nmol/L (1:0.1)
[22] = Compound 1 333 + combination drug 37.0 nmol/L (1:0.1)
[23] = Compound 1 13.7 + combination drug 123 nmol/L (1:9)
[24] = Compound 1 41.2 + combination drug 370 nmol/L (1:9)
[25] = Compound 1 123 + combination drug 1110 nmol/L (1:9)
[26] = Compound 1 370 + combination drug 3330 nmol/L (1:9)
[27] = Compound 1 1110 + combination drug 10000 nmol/L (1:9)
[28] = Compound 1 4.57 nmol/L + Etoposide 123 nmol/L, molar ratio 1:27
[29] = Compound 1 13.7 nmol/L + Etoposide 370 nmol/L, molar ratio 1:27
[30] = Compound 1 41.2 nmol/L + Etoposide 1110 nmol/L, molar ratio 1:27
[31] = Compound 1 13.7 + combination drug 12.3 nmol/L (1:0.9)
[32] = Compound 1 41.2 + combination drug 37.0 nmol/L (1:0.9)
[33] = Compound 1 123 + combination drug 111 nmol/L (1:0.9)
[34] = Compound 1 370 + combination drug 333 nmol/L (1:0.9)
[35] = Compound 1 1110 + combination drug 1000 nmol/L (1:0.9)
[36] = Compound 1 1.52 + combination drug 1.37 nmol/L (1:0.9)
[37] = Compound 1 4.57 + combination drug 4.12 nmol/L (1:0.9)
[38] = Compound 1 41.2 + combination drug 3330 nmol/L (1:81)
[39] = Compound 1 123 + combination drug 10000 nmol/L (1:81)
[40] = Compound 1 13.7 + combination drug 1.37 nmol/L (1:0.1)
[41] = Compound 1 41.2 + combination drug 4.12 nmol/L (1:0.1)
[42] = Compound 1 123 + combination drug 12.3 nmol/L (1:0.1)
[43] = Compound 1 1110 nmol/L + Vorinostat 3330 nmol/L, molar ratio 1:3
[44] = Compound 1 3330 nmol/L + Vorinostat 10000 nmol/L, molar ratio 1:3
[45] = Compound 1 1.52 nmol/L + Vorinostat 41.2 nmol/L, molar ratio 1:27
[46] = Compound 1 4.57 nmol/L + Vorinostat 123 nmol/L, molar ratio 1:27
[47] = Compound 1 13.7 nmol/L + Vorinostat 370 nmol/L, molar ratio 1:27
[48] = Compound 1 41.2 nmol/L + Vorinostat 1110 nmol/L, molar ratio 1:27
[49] = Compound 1 123 nmol/L + Vorinostat 3330 nmol/L, molar ratio 1:27
[50] = Compound 1 370 nmol/L + Vorinostat 10000 nmol/L, molar ratio 1:27

## COc1cc2ncnc(Nc3ccc(F)c(Cl)c3)c2cc1OCCCN1CCOCC1 [Gefitinib]
NCI-H358; [1]
  CI: 0.311
NCI-H358; [2]
  CI: 0.370
NCI-H358; [3]
  CI: 0.724
NCI-H358; [4]
  Description (combinatory effect by CI): Synergy (0.3-0.7)
RT4; [1]
  CI: 0.205
RT4; [2]
  CI: 0.352
RT4; [3]
  CI: 0.445

## O=c1[nH]c(=O)n([C@H]2C[C@H](O)[C@@H](CO)O2)cc1C(F)(F)F [FTD]
MKN45; [5]
  CI: 0.716
  Fa: 0.6654
MKN45; [6]
  CI: 0.494
  Fa: 0.8785
MKN45; Compound 1 + FTD, molar ratio 1:27
  Description: Synergy (0.3-0.7)
RT4; [7]
  CI: 0.468
  Fa: 0.4667
RT4; [8]
  CI: 0.676
  Fa: 0.6009
RT4; [9]
  CI: 0.618
  Fa: 0.7931
RT4; Compound 1 + FTD, molar ratio 1:0.3
  Description: Synergy (0.3-0.7)

## C=CC(=O)Nc1cc(Nc2nccc(-c3cn(C)c4ccccc34)n2)c(OC)cc1N(C)CCN(C)C [Osimertinib]
NCI-H358; [1]
  CI: 0.333
  Fa: 0.2157
NCI-H358; [2]
  CI: 0.436
  Fa: 0.4242
NCI-H358; [3]
  CI: 0.844
  Fa: 0.5579
NCI-H358; [4]
  Description (combinatory effect by CI): Synergy (0.3-0.7)
RT4; [10]
  CI: 0.844
  Fa: 0.2395
RT4; [1]
  CI: 0.453
  Fa: 0.4891
RT4; [2]
  CI: 0.326
  Fa: 0.7067
RT4; [3]
  CI: 0.550
  Fa: 0.7777
RT4; [4]
  Description (combinatory effect by CI): Synergy (0.3-0.7)

## CCOc1cc2ncc(C#N)c(Nc3ccc(OCc4ccccn4)c(Cl)c3)c2cc1NC(=O)/C=C/CN(C)C [Neratinib]
MKN45; [11]
  CI: 0.658
  Fa: 0.5592
MKN45; [12]
  CI: 0.336
  Fa: 0.8104
MKN45; [13]
  CI: 0.237
  Fa: 0.9240

## Nc1ccn([C@@H]2O[C@H](CO)[C@@H](O)C2(F)F)c(=O)n1 [Gemcitabine]
MKN45; [14]
  CI: 0.698
  Fa: 0.2152
MKN45; [15]
  CI: 0.878
  Fa: 0.4083
MKN45; Compound 1 + Gemcitabine, molar ratio 1:0.1
  Description: Synergy (0.3-0.7)

## O=c1[nH]cc(F)c(=O)[nH]1 [Compound 5-FU]
MKN45; [16]
  CI: 0.738
  Fa: 0.4610
MKN45; [17]
  CI: 0.399
  Fa: 0.7197
MKN45; Compound 1 + 5-FU, molar ratio 1:81
  Description: Synergy (0.3-0.7)

## CS(=O)(=O)CCNCc1ccc(-c2ccc3ncnc(Nc4ccc(OCc5cccc(F)c5)c(Cl)c4)c3c2)o1 [Lapatinib]
MKN45; [18]
  CI: 0.965
  Fa: 0.6048
MKN45; [19]
  CI: 0.497
  Fa: 0.9171
MKN45; Compound 1:combination drug molar ratio 1:27
  Description (combinatory effect by CI): Synergy (0.3-0.7)

## Cc1ccc(C(=O)Nc2ccc(CN3CCN(C)CC3)c(C(F)(F)F)c2)cc1C#Cc1cnc2cccnn12 [Ponatinib]
NCI-H358
  CI: 0.794 and 0.463 and 0.639

## CC(=O)Nc1cccc(-n2c(=O)n(C3CC3)c(=O)c3c(Nc4ccc(I)cc4F)n(C)c(=O)c(C)c32)c1 [Trametinib]
MKN45; [20]
  CI: 0.358
  Fa: 0.4047
MKN45; [21]
  CI: 0.389
  Fa: 0.6614
MKN45; [22]
  CI: 0.693
  Fa: 0.7703
MKN45; Compound 1:combination drug molar ratio 1:0.1
  Description (combinatory effect by CI): Synergy (0.3-0.7)

## CNC(=O)c1cc(Oc2ccc(NC(=O)Nc3ccc(Cl)c(C(F)(F)F)c3)c(F)c2)ccn1 [Regorafenib]
RT4; [23]
  CI: 0.650
  Fa: 0.1849
RT4; [24]
  CI: 0.582
  Fa: 0.3071
RT4; [25]
  CI: 0.359
  Fa: 0.5417
RT4; [26]
  CI: 0.696
  Fa: 0.6157
RT4; [27]
  CI: 0.979
  Fa: 0.7401
RT4; Compound 1:combination drug molar ratio 1:9
  Description (combinatory effect by CI): Synergy (0.3-0.7)

## COc1cc([C@@H]2c3cc4c(cc3[C@@H](O[C@@H]3O[C@@H]5CO[C@@H](C)O[C@H]5[C@H](O)[C@H]3O)[C@H]3COC(=O)[C@H]23)OCO4)cc(OC)c1O [Etoposide]
RT4; [28]
  CI: 0.460
  Fa: 0.0637
RT4; [29]
  CI: 0.373
  Fa: 0.2820
RT4; [30]
  CI: 0.432
  Fa: 0.5945
RT4; Compound 1 + Etoposide, molar ratio 1:27
  Description: Synergy (0.3-0.7)

## Cc1nc(Nc2ncc(C(=O)Nc3c(C)cccc3Cl)s2)cc(N2CCN(CCO)CC2)n1 [Dasatinib]
NCI-H358; [31]
  CI: 0.342
  Fa: 0.2486
NCI-H358; [32]
  CI: 0.208
  Fa: 0.4351
NCI-H358; [33]
  CI: 0.119
  Fa: 0.7042
NCI-H358; [34]
  CI: 0.227
  Fa: 0.7700
NCI-H358; [35]
  CI: 0.633
  Fa: 0.7795
RT4; [36]
  CI: 0.804
  Fa: 0.1983
RT4; [37]
  CI: 0.356
  Fa: 0.3708
RT4; [31]
  CI: 0.147
  Fa: 0.5917
RT4; [32]
  CI: 0.207
  Fa: 0.6714
RT4; [33]
  CI: 0.096
  Fa: 0.8271
RT4; [34]
  CI: 0.192
  Fa: 0.8517
RT4; [35]
  CI: 0.229
  Fa: 0.8974

## COc1cc(OC)cc(N(CCNC(C)C)c2ccc3ncc(-c4cnn(C)c4)nc3c2)c1 [Erdafitinib]
NCI-H358; [38]
  CI: 0.768
  Fa: 0.3851
NCI-H358; [39]
  CI: 0.681
  Fa: 0.7532
NCI-H358; Compound 1:combination drug molar ratio 1:81
  Description (combinatory effect by CI): Synergy (0.3-0.7)
RT4; [40]
  CI: 0.602
  Fa: 0.3659
RT4; [41]
  CI: 0.124
  Fa: 0.6028
RT4; [42]
  CI: 0.129
  Fa: 0.6985

## O=C(CCCCCCC(=O)Nc1ccccc1)NO [Vorinostat]
NCI-H358; [43]
  CI: 0.642
  Fa: 0.7678
NCI-H358; [44]
  CI: 0.464
  Fa: 0.9628
NCI-H358; combination effect, Compound 1 + Vorinostat, molar ratio 1:3
  Description: Synergy (0.3-0.7)
RT4; [45]
  CI: 0.581
  Fa: 0.0392
RT4; [46]
  CI: 0.388
  Fa: 0.1081
RT4; [47]
  CI: 0.647
  Fa: 0.1594
RT4; [48]
  CI: 0.394
  Fa: 0.4179
RT4; [49]
  CI: 0.569
  Fa: 0.5893
RT4; [50]
  CI: 0.334
  Fa: 0.8967
RT4; Compound 1 + Vorinostat, molar ratio 1:27
  Description: Synergy (0.3-0.7)
